Results on 25 molecules are retold here after patent US12629374B2, “Antimalarial agents” (Merck Sharp & Dohme LLC, priority 2020, dated 2026).

As usually defined, the EC50 is the concentration giving half of the maximal effect.

Where a name gives a salt, the structure may show the parent alone.

The first assay concerns ring stage parasites. Put plainly: Parasite growth potency assay, 72 hours, LDH readout. To be noted: 72 h, parasite growth measured by LDH assay after 72 hours at 37° C.; 0.7% rings, 2% haematocrit; read-out: EC50. Type of assay: cell-based. A digest of the protocol: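 Parasite growth was quantified by LDH assay after a −80 °C freeze-thaw. Before that, compound was incubated for 72 h at 37 °C under humidified gas with ring-stage cultures adjusted to 0.7% parasitemia and 2% haematocrit in serum- and albumax-supplemented RPMI-Hepes.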
As to `CCC1(CC)CC(=O)N([C@H](CCO)c2cccc(C(=O)N[C@H]3CCOc4ccccc43)c2)C(=N)N1` [Example 59, [1-[1-[3-[[(4S)-chroman-4-yl]carbamoyl]phenyl]-3-hydroxy-propyl]-4,4-diethyl-6-oxo-hexahydropyrimidin-2-ylidene]ammonium; 2,2,2-trifluoroacetate], the EC50 was 4.7 nM.

On to `CCC1(CC)CC(=O)N(Cc2cc(F)cc(C(=O)N[C@@H]3c4ccccc4C[C@H]3O)c2)C(=N)N1` [Example 35, [4,4-diethyl-1-[[3-fluoro-5-[[(1R,2R)-2-hydroxyindan-1-yl]carbamoyl]phenyl]methyl]-6-oxo-hexahydropyrimidin-2-ylidene]ammonium; 2,2,2-trifluoroacetate], for which the EC50 worked out at 2 nM.

For `C#CCC[C@@H](c1cccc(C(=O)N[C@H]2CC(C)(C)Oc3ccccc32)c1)N1C(=N)N[C@](C)(C(C)C)CC1=O` [Example 108B, [(4S)-1-[1-[3-[[(4S)-2,2-dimethylchroman-4-yl]carbamoyl]phenyl]pent-4-ynyl]-4-isopropyl-4-methyl-6-oxo-hexahydropyrimidin-2-ylidene]ammonium; 2,2,2-trifluoroacetate], the EC50 amounted to 23.6 nM.

With `CCC1(CC)CC(=O)N([C@H](CCOC)c2cncc(C(=O)N[C@H]3CC(C)(C)Oc4ccccc43)c2)C(=N)N1` [Example 103, [1-[1-[5-I(4S)-2,2-dimethylchroman-4-yl]carbamoyl]pyridin-1-ium-3-yl]-3-methoxy-propyl]-4,4-diethyl-6-oxo-hexahydropyrimidin-2-ylidene]ammonium; 2,2,2-trifluoroacetate], the EC50 came to 0.5 nM.

With `CCC1(CC)CC(=O)N(Cc2cc(C(=O)N[C@@H]3c4ccccc4OC(C)(C)[C@H]3O)ccn2)C(=N)N1` (stereo in doubt) [Example 133, [4,4-diethyl-1-[[4-[(3-hydroxy-2,2-dimethyl-chroman-4-yl)carbamoyl]pyridin-1-ium-2-yl]methyl]-6-oxo-hexahydropyrimidin-2-ylidene]ammonium; 2,2,2-trifluoroacetate], the EC50 was found to be 3.3 nM.

Take `CCC1(CC)CC(=O)N([C@H](CCOC(F)F)c2cccc(C(=O)N[C@@H]3c4ccccc4OC(C)(C)[C@H]3O)c2)C(=N)N1` [Example 159, [1-[3-(difluoromethoxy)-1-[3-[[(3S,4R)-3-hydroxy-2,2-dimethyl-chroman-4-yl]carbamoyl]phenyl]propyl]-4,4-diethyl-6-oxo-hexahydropyrimidin-2-ylidene]ammonium; 2,2,2-trifluoroacetate]: the EC50 came to 0.8 nM.

Consider `CC#CCCC(c1cccc(C(=O)NC2CC(C)(C)Oc3ccccc32)c1)N1C(=N)NC(CC)(CC)CC1=O` (stereo not shown) [Example 83A, [1-[1-[3-[(2,2-dimethylchroman-4-yl)carbamoyl]phenyl]hex-4-ynyl]-4,4-diethyl-6-oxo-hexahydropyrimidin-2-ylidene]ammonium; 2,2,2-trifluoroacetate], for which the EC50 was found to be 62.9 nM.

Take `CCC1(CC)CC(=O)N(Cc2cccc(C(=O)N[C@@H]3c4ccccc4OCC3O)c2)C(=N)N1` (stereo in doubt) [Example 126B, 3-[(4,4-diethyl-2-imino-6-oxo-hexahydropyrimidin-1-yl)methyl]-N-(3-hydroxychroman-4-yl)benzamide]: the EC50 stood at 19.4 nM.

Regarding `N=C1N[C@@](CC2CC2)(c2ccccc2)CC(=O)N1Cc1cc(F)cc(C(=O)N[C@H]2CCOc3ccccc32)c1` [Example 5A, [(4R)-1-[[3-[[(4S)-chroman-4-yl]carbamoyl]-5-fluoro-phenyl]methyl]-4-(cyclopropylmethyl)-6-oxo-4-phenyl-hexahydropyrimidin-2-ylidene]ammonium; 2,2,2-trifluoroacetate], the EC50 was 16.2 nM.

For `CCC1(CC)CC(=O)N([C@H](CCOC)c2cccc(C(=O)N[C@H]3c4ccccc4OC3(C)C)c2)C(=N)N1` [Example 181B, [1-[(1R)-1-[3-[(2,2-dimethyl-3H-benzofuran-3-yl)carbamoyl]phenyl]-3-methoxy-propyl]-4,4-diethyl-6-oxo-hexahydropyrimidin-2-ylidene]ammonium; 2,2,2-trifluoroacetate], the EC50 came out at 71.2 nM.

`CCC1(CC)CC(=O)N(Cc2cccc(C(=O)N[C@H]3CC(C)(C)Oc4ccc(F)cc43)c2)C(=N)N1` (stereo in doubt) [Example 88, [4,4-diethyl-1-[[3-[(6-fluoro-2,2-dimethyl-chroman-4-yl)carbamoyl]phenyl]methyl]-6-oxo-hexahydropyrimidin-2-ylidene]ammonium; 2,2,2-trifluoroacetate]: the EC50 was found to be 0.4 nM.

Take `CC1(C)CC(=O)N(C(CC(F)(F)F)c2cccc(C(=O)N[C@@H]3c4ccccc4C[C@H]3O)c2)C(=N)N1` (stereo partly drawn) [Example 224, N-[(1R,2R)-2-hydroxyindan-1-yl]-3-[3,3,3-trifluoro-1-(2-imino-4,4-dimethyl-6-oxo-hexahydropyrimidin-1-yl)propyl]benzamide]: the EC50 worked out at 15.5 nM.

`COCC[C@H](c1cccc(C(=O)N[C@@H]2c3cc(F)ccc3C[C@H]2O)c1)N1C(=N)NC(C)(C)CC1=O` [Example 200, [1-[(1R)-1-[3-[(6-fluoro-2-hydroxy-indan-1-yl)carbamoyl]phenyl]-3-methoxy-propyl]-4,4-dimethyl-6-oxo-hexahydropyrimidin-2-ylidene]ammonium; 2,2,2-trifluoroacetate]: the EC50 worked out at 7.1 nM.

With `CCC1(CC)CC(=O)N(C(CCOC)c2ccc(C(F)(F)F)c(C(=O)N[C@@H]3c4ccccc4OC[C@H]3O)c2)C(=N)N1` (stereo partly drawn) [Example 243, 5-[1-(4,4-diethyl-2-imino-6-oxo-hexahydropyrimidin-1-yl)-3-methoxy-propyl]-N-[(3S,4R)-3-hydroxychroman-4-yl]-2-(trifluoromethyl)benzamide], the EC50 is 6.4 nM.

Consider `CCC1(CC)CC(=O)N([C@H](CCN2CCOCC2)c2cccc(C(=O)N[C@H]3C[C@H](C(F)(F)F)Oc4ccccc43)c2)C(=N)N1` [Example 136, [4,4-diethyl-1-[3-morpholin-4-ium-4-yl-1-[3-[[(2R,4S)-2-(trifluoromethyl)chroman-4-yl]carbamoyl]phenyl]propyl]-6-oxo-hexahydropyrimidin-2-ylidene]ammonium; 2,2,2-trifluoroacetate], for which the EC50 came out at 1.3 nM.

For the molecule `CCC1(CC)CC(=O)N(Cc2cccc(C(=O)NC3(C)CCOc4ccccc43)c2)C(=N)N1` (stereo not shown) [Example 113, 3-[(4,4-diethyl-2-imino-6-oxo-hexahydropyrimidin-1-yl)methyl]-N-(4-methylchroman-4-yl)benzamide], the EC50 worked out at 96.1 nM.

In the case of `CCC1(CC)CC(=O)N(C(CCOC)c2ccc(C(F)(F)F)c(C(=O)N[C@@H]3c4ccccc4OC[C@@]3(C)O)c2)C(=N)N1` (stereo partly drawn) [Example 244, 5-[1-(4,4-diethyl-2-imino-6-oxo-hexahydropyrimidin-1-yl)-3-methoxy-propyl]-N-[(3S,4R)-3-hydroxy-3-methyl-chroman-4-yl]-2-(trifluoromethyl)benzamide], the EC50 amounted to 6.13 nM.

As for `CCC[C@H](c1cccc(C(=O)N[C@@H]2CC3(CCC3)Oc3ccccc32)c1)N1C(=N)NC(CC)(CC)CC1=O` (stereo in doubt) [Example 212A, [4,4-diethyl-6-oxo-1-[(1R)-1-[3-[[(4S)-spiro[chromane-2,1′-cyclobutane]-4-yl]carbamoyl]phenyl]butyl]hexahydropyrimidin-2-ylidene]ammonium; 2,2,2-trifluoroacetate], the EC50 came to 8 nM.

As to `CCC1(CC)CC(=O)N([C@H](c2ccc(S(C)(=O)=O)cc2)c2cccc(C(=O)N[C@@H]3c4ccccc4C[C@H]3O)c2)C(=N)N1` [Example 116, [4,4-diethyl-1-[[3-[[(1R,2R)-2-hydroxyindan-1-yl]carbamoyl]phenyl]-(4-methylsulfonylphenyl)methyl]-6-oxo-hexahydropyrimidin-2-ylidene]ammonium; chloride], the EC50 stood at 6.8 nM.

As to `CC1(C)CC(=O)N(C(CC(F)(F)F)c2cccc(C(=O)N[C@@H]3c4ccccc4OC(C)(C)[C@H]3O)c2)C(=N)N1` (stereo partly drawn) [Example 233, N-[(3S,4R)-3-hydroxy-2,2-dimethyl-chroman-4-yl]-3-[3,3,3-trifluoro-1-(2-imino-4,4-dimethyl-6-oxo-hexahydropyrimidin-1-yl)propyl]benzamide], the EC50 worked out at 1.4 nM.

Take `CCC1(CC)CC(=O)N([C@H](CCOC)c2cccc(C(=O)NC3c4ccccc4OC(C(F)(F)F)C3O)c2)C(=N)N1` (stereo partly drawn) [Example 151, [4,4-diethyl-1-[(1R)-1-[3-[[3-hydroxy-2-(trifluoromethyl)chroman-4-yl]carbamoyl]phenyl]-3-methoxy-propyl]-6-oxo-hexahydropyrimidin-2-ylidene]ammonium; 2,2,2-trifluoroacetate]: the EC50 worked out at 1.1 nM.

With `C#CCC[C@H](c1cccc(C(=O)N[C@H]2CC(C)(C)Oc3ccccc32)c1)N1C(=N)NC(CC)(CC)CC1=O` [Example 214C, 3-[(1R)-1-(4,4-diethyl-2-imino-6-oxo-hexahydropyrimidin-1-yl)pent-4-ynyl]-N-(2,2-dimethylchroman-4-yl)benzamide], the EC50 was determined as 0.4 nM.

Staying with this assay, now noted: parasite growth measured by LDH assay after 72 hours at 37° C.; 0.7% rings, 2% haematocrit; read-out: EC50.
Turning to `CCC1(CC)CC(=O)N(C(CC(O)C(F)(F)F)c2cccc(C(=O)N[C@@H]3c4ccccc4C[C@H]3O)c2)C(=N)N1` (single isomer, unassigned) [Example 236B], the EC50 amounted to 0.96 nM.

Staying with this assay, now noted: parasite growth measured by LDH assay after 72 hours at 37° C.; 0.7% rings, 2% haematocrit; trifluoroacetate; read-out: EC50.
Consider `CCC1(CC)CC(=O)N(Cc2cccc(C(=O)N[C@@H]3c4ccccc4OC3(C)CO)c2)C(=N)N1` (stereo in doubt) [Example 187A, [4,4-diethyl-1-[[3-[[2-(hydroxymethyl)-2-methyl-3H-benzofuran-3-yl]carbamoyl]phenyl]methyl]-6-oxo-hexahydropyrimidin-2-ylidene]ammonium; 2,2,2-trifluoroacetate], for which the EC50 came out at 54.2 nM.

Take `CCC1(CC)CC(=O)N([C@H](CCOC)c2cccc(C(=O)N[C@@H]3c4ccccc4OC3(C)CO)c2)C(=N)N1` (single isomer, unassigned) [Example 180B, trifluoroacetate]: the EC50 turned out to be 15.3 nM.
